# According to patent publication US9782389B2, “Fungal mycobiome as probiotics, diagnostics and therapeutics” (Cedars-Sinai Medical Center, priority 2012, dated 2017):
# Entries after “also recorded” stand apart in the source; their conditions may differ.
# Key:
# DSS colitis = DSS colitis with fluconazole in the drinking water (anti-fungal therapy); format: in vivo, mouse; conditions: Clec7a−/− mice; for weight loss during colitis: fluconazole 0.5 mg/ml in drinking water for 14 days starting 2 days prior to DSS, 2.5% DSS 7 days, effect from day 9 (p<0.05)
# Procedure: WT and Clec7a−/− mice were cohoused for three weeks prior the experiments. Alternatively, WT and Clec7a−/− littermates were used where indicated. For the induction of colitis, mice were given drinking water supplemented with 2.5% (w/v) Dextran sulphate sodium (DSS, MP Biomedicals, LLC, Aurora, Ohio) for 7 days and sacrificed at day 12. For ablation of intestinal fungi, mice were given Fluconazole (0.5 mg/ml, Sigma) in the drinking water for total of 14 days starting 2 days prior the induction of DSS colitis. In some experiments, prior and upon colitis induction, mice were supplemented every other day with four doses (1×108 yeast/mouse/dose) of Candida tropicalis or Saccharomycopsis fibuligera as shown in FIG. 19. Body weight, gross blood, and stool consistency were analyzed on a daily basis. Paraffin embedded colon tissues were sectioned and stained with H&E for pathology assessment. Assessment of the severity of colitis was measured by the disease activity index (DAI) as previously described.
# LI-LP lymphocytes were isolated as previously described with some modifications. Briefly, colons were isolated, opened longitudinally, washed of fecal contents and then cut into 1 cm pieces. Intestinal pieces were transferred into HBSS medium (Sigma), supplemented with 5% fetal bovine serum (FBS) and 2 mM EDTA, and were shaken for 15 min at 37° C. The suspensions were filtered through a mesh and the filtrate containing the mucosa and mucosa associated microflora was used further for DNA isolation. The remaining tissue was washed, cut in small pieces and subsequently incubated in digestion medium consisting of RPMI 1640, 5% FBS, 0.5 mg/ml collagenase type VIII (Sigma), 5 U/ml DNase (Roche Diagnostics), 100 IU/ml penicillin and 100 μg/ml streptomycin for 30 min at 37° C. by gentle shaking. The cell suspensions were filtered through a mesh, and then centrifuged at 1300 rpm. Cell suspensions were cultured overnight and TNF-α production by colonic cells was measured by ELISA (BioLegend, San Diego, Calif.).
# Cell suspensions were prepared from MLNs and the LI-LP as described above. Cells were incubated with 50 ng/ml phorbol 12-myristate 13-acetate (PMA; Sigma-Aldrich), 500 ng/ml ionomycin (Sigma-Aldrich) and 10 μg/ml Brefeldin A (BFA; Sigma-Aldrich) in complete RPMI media at 37° C. for 6 h. After surface staining with CD4, cells were permeabilized and intracellular cytokine staining was performed using APC-labeled anti-IFN-γ mAb (XMG1.2; BD Biosciences) and PE-labeled anti-IL-17 mAb (TC11-18H10; BD Biosciences) according to the manufacturer's instructions. Flow cytometry was performed using a LSRII (BD Biosciences) and data were analyzed with FlowJo software (TreeStar Inc.).
# For detection of cytokines by ELISA, MLN cells and LI-LP lymphocytes were stimulated with 10 μg/ml plate bound anti-CD3 and anti-CD28 antibodies (BioLegend, San Diego, Calif.). Supernatants were collected after 36 hrs and analyzed for IFN-γ and IL-17 production by ELISA (BioLegend, San Diego, Calif.).
# Tissue samples from the proximal and distal colon were isolated and homogenized. RNA was isolated by using RNeasy Mini Kit (Qiagen) and reverse transcribed. Real-time RT-PCR analyses were done on the Applied Biosystems 7500 Fast Real-Time PCR System with the SYBR Green PCR kit as instructed by the manufacturer (Applied Biosystems). […] Samples were analyzed for gene expression using the following primers: […]
# intestinal fungi = assay: Depletion of intestinal fungi by fluconazole, colon sections stained with sDEC-1; format: in vivo, mouse; conditions: mice treated with fluconazole 0.5 mg/ml in drinking water for 2 weeks; sDEC-1 staining of colon sections
# Procedure: OCT-embedded intestinal specimens were sectioned, mounted on microscope slides and then incubated for 40 min in PBS containing 2% FCS. Murine soluble Dectin-1 (sDec-1) was generated and biotin-labeled as previously described. sDec-1 (10 μg/ml) was fluorescently labeled with streptavidin-Alexa 647 (2 μg/ml, Invitrogen) (sDec-1-Alexa647), and intestinal sections were stained for 1 hr. To block Dectin-1 interaction. sDec-1-Alexa647 was incubated with 1 μg/ml laminarin (soluble β-glucan from Laminaria digitata, Sigma) and intestinal sections were stained as previously described. Alternatively, intestinal sections were stained with FITC conjugated rabbit anti-Candida polyclonal antibody (Meridian Life Science, Cincinnati, Ohio). […] Therefore throughout this study we have referred to the antibody as an “anti-fungal antibody”. Slides were rinsed with PBS and stained for 5 min with 0.1 μg/ml 4′,6-diamidino-2-phenylindole (DAPI, Invitrogen) and overlaid with mounting medium (Vectashield; Vector, Burlingame, Calif.). Slides were examined using a Zeiss Axio Observer Fluorescence microscope. All compared images were collected and processed identically. Colons from Fluconazole (0.5 mg/ml for 2 weeks in the drinking water) treated mice were used in control staining.
# [1] = fluconazole in drinking water, DSS colitis
smiles,measurement,setting,value
OC(Cn1cncn1)(Cn1cncn1)c1ccc(F)cc1F [fluconazole],weight loss during colitis,DSS colitis,reduced weight loss
same,weight loss during colitis,DSS colitis; listed as Fluconazole,significantly abrogated weight loss
same,colitis overall,DSS colitis; fluconazole in drinking water for 14 days starting 2 days prior to DSS,ameliorates colitis
same,histological disease characteristics (histology score),"DSS colitis; fluconazole in drinking water, 4 days after the 7 days of DSS",milder histological disease characteristics
same,"Th1 and Th17 responses (IL-17 and IFN-γ producing CD4+ T cells in LI-LP, production in MLNs)",DSS colitis; [1],decreased Th1 and Th17 responses
same,production of inflammatory cytokines in the colon,DSS colitis; [1],decreased production of inflammatory cytokines
same,presence of fungi in the intestine,intestinal fungi,substantially reduces the presence of fungi; also recorded: suppressed fungal growth
